Values quoted from earlier work as cited in patent US12414981B2, “JNK inhibitors for use in treating and preventing neurodegenerative disorders” (Northwestern University, priority 2021, dated 2025).

Details: in vivo

Oc1c2ccccc2c2c3c(cccc13)N=N2 [SP600125, anthra [1,9]pyrazol-6 (2H)-one]
crosses the blood-brain barrier: crosses the blood-brain barrier
